Measurements: the NIST ThermoML archive (doi:10.1016/j.jct.2017.02.010)
± gives the expanded uncertainty stated by the source.

Conditions: Gas chromatography

| SMILES | vapor or sublimation pressure (298.15 K, Liquid) | vapor or sublimation pressure (305 K, Liquid) | vapor or sublimation pressure (310 K, Liquid) | vapor or sublimation pressure (315 K, Liquid) | vapor or sublimation pressure (320 K, Liquid) | vapor or sublimation pressure (325 K, Liquid) | vapor or sublimation pressure (330 K, Liquid) | vapor or sublimation pressure (335 K, Liquid) | vapor or sublimation pressure (340 K, Liquid) | vapor or sublimation pressure (345 K, Liquid) | vapor or sublimation pressure (350 K, Liquid) | vapor or sublimation pressure (298.15 K, Metastable liquid) | vapor or sublimation pressure (305 K, Metastable liquid) | vapor or sublimation pressure (310 K, Metastable liquid) | vapor or sublimation pressure (315 K, Metastable liquid) | vapor or sublimation pressure (320 K, Metastable liquid) | vapor or sublimation pressure (325 K, Metastable liquid) | vapor or sublimation pressure (330 K, Metastable liquid) | vapor or sublimation pressure (335 K, Metastable liquid) | vapor or sublimation pressure (340 K, Metastable liquid) | other results |
| --- | --- | --- | --- | --- | --- | --- | --- | --- | --- | --- | --- | --- | --- | --- | --- | --- | --- | --- | --- | --- | --- |
| CCCC[C@H]1OC(=O)C[C@H]1C [cis-whiskey lactone] | 0.0015 ± 0.0002 kPa | 0.0028 ± 0.0004 kPa | 0.0043 ± 0.0009 kPa | 0.0064 ± 0.0013 kPa | 0.0095 ± 0.0019 kPa | 0.014 ± 0.002 kPa | 0.02 ± 0.004 kPa | 0.029 ± 0.006 kPa | 0.041 ± 0.009 kPa | 0.057 ± 0.011 kPa | 0.079 ± 0.013 kPa |  |  |  |  |  |  |  |  |  |  |
| CCCC[C@H]1OC(=O)C[C@@H]1C [trans-whiskey lactone] | 0.002 ± 0.0003 kPa | 0.0036 ± 0.0007 kPa | 0.0056 ± 0.0011 kPa | 0.0084 ± 0.0017 kPa | 0.012 ± 0.003 kPa | 0.018 ± 0.004 kPa | 0.026 ± 0.006 kPa | 0.037 ± 0.007 kPa | 0.052 ± 0.011 kPa | 0.072 ± 0.013 kPa | 0.099 ± 0.016 kPa |  |  |  |  |  |  |  |  |  |  |
| CC1=C2CC[C@@H](C)C[C@@H]2OC1=O [(.+-.)-isomintlactone] |  |  |  |  |  |  |  |  |  |  |  | 0.00026 ± 4e-05 kPa | 0.00051 ± 9e-05 kPa | 0.00081 ± 0.00017 kPa | 0.0013 ± 0.0002 kPa | 0.0019 ± 0.0004 kPa | 0.0029 ± 0.0006 kPa | 0.0044 ± 0.001 kPa | 0.0064 ± 0.0015 kPa | 0.0093 ± 0.0021 kPa | vapor or sublimation pressure (345 K, Metastable liquid): 0.013 ± 0.002 kPa; vapor or sublimation pressure (350 K, Metastable liquid): 0.019 ± 0.004 kPa |
| CC1=C2CC[C@@H](C)C[C@H]2OC1=O [(-)-mintlactone] |  |  |  |  |  |  |  |  |  |  |  | 0.00033 ± 5e-05 kPa | 0.00063 ± 0.00011 kPa | 0.001 ± 0.0002 kPa | 0.0015 ± 0.0004 kPa | 0.0024 ± 0.0006 kPa | 0.0035 ± 0.0008 kPa | 0.0053 ± 0.0013 kPa | 0.0077 ± 0.0017 kPa | 0.011 ± 0.002 kPa | vapor or sublimation pressure (345 K, Metastable liquid): 0.016 ± 0.002 kPa; vapor or sublimation pressure (350 K, Metastable liquid): 0.023 ± 0.004 kPa |
